How the values were obtained:
Format in all cases: biochemical
[1] = biological target: T1, human factor IIa (human alpha-thrombin) (Homo sapiens, UniProt P00734); experiment: Inhibition constants for human factor IIa, chromogenic substrate assay; conditions: 25° C., Pefachrome tPA substrate, average of at least three determinations; read-out: Ki h FIIa
T1 construct: human alpha-thrombin from Enzyme Research Laboratories; purchased Enzyme Research Laboratories
Procedure: (§1) The inhibitory effect against the individual purified enzymes was determined in analogy to a previously disclosed method (Stürzebecher et al., J. Med. Chem., 40, 3091-3099 (1997)).
(§2) 200 μL of TBS (0.05 M trishydroxymethylaminomethane; 0.154 M NaCl, 2% ethanol, pH 8.0)
(§3) The release of p-nitroaniline (p-NA, the chromogenic product of the proteolytic activity), was determined by change in absorbance at 405 nm. The equilibrium rates were used to calculate the inhibitor/enzyme dissociation constant (Ki values) by parameter fitting in accordance with the rate equation for competitive inhibition using GraFit (version 4 from Erithacus). The results are reported as Ki values (nanomolar) in table 7 and are the average of at least three determinations.

[2] = biological target: T2, human Factor Xa (Homo sapiens, UniProt P00742); experiment: Inhibition constants for human factor Xa, chromogenic substrate assay; conditions: 25° C., Pefachrome FXa substrate, average of at least three determinations; read-out: Ki h FXa
T2 construct: human Factor Xa from Enzyme Research Laboratories; purchased Enzyme Research Laboratories
Procedure: as §1, §2, §3

[3] = biological target: T3, Human Activated Protein C (h aPC) (Homo sapiens, UniProt P04070); experiment: Inhibition of human activated protein C (reference enzyme); conditions: Pefachrome PCa substrate
T3 construct: purchased Enzyme Research Laboratories
Procedure: as §1, §3
(§4) Dissociation constants were calculated as described herein.

[4] = biological target: T4, Human plasmin (h plasmin) (Homo sapiens, UniProt P00747); experiment: Inhibition of human plasmin (reference enzyme); conditions: Chromozym PL substrate
T4 construct: purchased Calbiochem
Procedure: as §1, §3, §4

[5] = biological target: T5, Human plasma kallikrein (h PK) (Homo sapiens, UniProt P03952); experiment: Inhibition of human plasma kallikrein (reference enzyme); conditions: S2302 substrate
T5 construct: purchased Enzyme Research Laboratories
Procedure: as §1, §3, §4

[6] = biological target: T6, Human tissue-type plasminogen activator (h t-PA) (Homo sapiens, UniProt P00750); experiment: Inhibition of human tissue-type plasminogen activator (reference enzyme); conditions: Pefachrome tPA substrate; read-out: Ki h t-PA
T6 construct: purchased Boehringer Ingelheim Actilyse
Procedure: The equilibrium rates were used to calculate the inhibitor/enzyme dissociation constant (Ki values) by parameter fitting in accordance with the rate equation for competitive inhibition using GraFit (version 4 from Erithacus).
as §4

[7] = biological target: T7, Human urokinase type plasminogen activator (h u-PA) (Homo sapiens, UniProt P00749); experiment: Inhibition of human urokinase type plasminogen activator (reference enzyme); conditions: H-Glu-Gly-Arg-pNA substrate
T7 construct: purchased MEDAC GmbH Urokinase HS medac
Procedure: as §1, §3, §4

[8] = biological target: T8, Subcomponent "s" of Human Complement Component 1 (h C1s) (Homo sapiens, UniProt P09871); experiment: Inhibition of human C1s (reference enzyme); conditions: S-2314 substrate; read-out: Ki h Cls
T8 construct: purchased Calbiochem
T8 sequence (P09871 438-688 limits assumed): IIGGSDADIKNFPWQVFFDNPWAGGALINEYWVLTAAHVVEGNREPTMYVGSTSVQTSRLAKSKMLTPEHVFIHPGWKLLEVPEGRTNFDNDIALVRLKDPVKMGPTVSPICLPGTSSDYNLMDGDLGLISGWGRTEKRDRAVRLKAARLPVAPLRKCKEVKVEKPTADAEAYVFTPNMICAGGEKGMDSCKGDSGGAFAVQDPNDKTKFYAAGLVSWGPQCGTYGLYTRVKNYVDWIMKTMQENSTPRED
T8 sequence (P09871 16-437 partner limits assumed): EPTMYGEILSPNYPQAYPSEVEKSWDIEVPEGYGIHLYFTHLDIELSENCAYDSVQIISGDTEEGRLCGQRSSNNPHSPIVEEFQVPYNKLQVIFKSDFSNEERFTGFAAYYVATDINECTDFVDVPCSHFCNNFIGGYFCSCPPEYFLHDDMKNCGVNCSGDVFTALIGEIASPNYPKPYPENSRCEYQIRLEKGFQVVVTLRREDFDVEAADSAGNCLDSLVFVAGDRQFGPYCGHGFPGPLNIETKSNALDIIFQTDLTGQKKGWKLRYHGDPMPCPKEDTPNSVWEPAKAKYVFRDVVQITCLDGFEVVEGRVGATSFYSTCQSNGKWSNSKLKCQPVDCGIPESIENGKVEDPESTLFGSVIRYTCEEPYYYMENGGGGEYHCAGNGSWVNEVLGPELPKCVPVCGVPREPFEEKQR
Procedure: as §1, §3, §4

[9] = biological target: T9, Subcomponent "r" of Human Complement Component 1 (h C1r) (Homo sapiens, UniProt P00736); experiment: Inhibition of human C1r (reference enzyme); conditions: S-2314 substrate; read-out: Ki h Clr
T9 construct: purchased Calbiochem
T9 sequence (P00736 464-705 limits assumed): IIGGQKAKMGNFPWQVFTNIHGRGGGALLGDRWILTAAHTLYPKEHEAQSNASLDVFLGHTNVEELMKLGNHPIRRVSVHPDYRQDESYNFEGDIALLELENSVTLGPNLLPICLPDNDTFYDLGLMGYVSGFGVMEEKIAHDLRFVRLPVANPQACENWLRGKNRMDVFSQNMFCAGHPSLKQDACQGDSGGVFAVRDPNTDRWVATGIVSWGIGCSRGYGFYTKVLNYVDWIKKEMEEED
T9 sequence (P00736 18-463 partner limits assumed): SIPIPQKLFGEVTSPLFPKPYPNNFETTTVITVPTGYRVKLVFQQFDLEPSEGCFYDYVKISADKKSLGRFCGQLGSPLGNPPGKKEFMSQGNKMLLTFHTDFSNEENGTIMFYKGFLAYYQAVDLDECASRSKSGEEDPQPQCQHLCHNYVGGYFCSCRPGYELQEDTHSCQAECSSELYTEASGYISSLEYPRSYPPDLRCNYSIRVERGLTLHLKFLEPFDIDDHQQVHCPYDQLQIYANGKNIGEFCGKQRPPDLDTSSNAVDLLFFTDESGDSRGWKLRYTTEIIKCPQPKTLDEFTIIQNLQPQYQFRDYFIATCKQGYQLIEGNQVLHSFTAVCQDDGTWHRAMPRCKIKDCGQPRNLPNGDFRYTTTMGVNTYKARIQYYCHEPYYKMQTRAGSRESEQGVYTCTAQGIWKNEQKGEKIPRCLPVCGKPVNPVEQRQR
Procedure: as §1, §3, §4

[10] = biological target: T10, Human urinary kallikrein (h uKK) (Homo sapiens, UniProt P06870); experiment: Inhibition of human urinary kallikrein (reference enzyme); conditions: S-2266 substrate
T10 construct: purchased Lee Biosolutions
Procedure: as §1, §3, §4

T6 sequence (P00750 36-562): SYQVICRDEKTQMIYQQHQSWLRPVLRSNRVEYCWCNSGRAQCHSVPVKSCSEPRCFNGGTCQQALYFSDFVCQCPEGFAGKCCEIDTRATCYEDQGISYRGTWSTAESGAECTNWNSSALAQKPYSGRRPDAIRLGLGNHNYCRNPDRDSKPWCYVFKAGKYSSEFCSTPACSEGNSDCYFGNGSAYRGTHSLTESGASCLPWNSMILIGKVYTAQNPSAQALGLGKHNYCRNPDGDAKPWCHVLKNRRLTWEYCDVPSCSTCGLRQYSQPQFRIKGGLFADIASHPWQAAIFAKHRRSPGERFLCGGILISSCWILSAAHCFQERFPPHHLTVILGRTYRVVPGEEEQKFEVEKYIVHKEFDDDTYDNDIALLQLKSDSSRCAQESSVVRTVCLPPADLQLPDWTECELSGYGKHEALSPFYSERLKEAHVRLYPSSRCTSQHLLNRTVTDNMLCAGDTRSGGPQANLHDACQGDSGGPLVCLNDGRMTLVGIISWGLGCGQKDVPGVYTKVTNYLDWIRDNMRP
T4 sequence (P00747 581-810 limits assumed): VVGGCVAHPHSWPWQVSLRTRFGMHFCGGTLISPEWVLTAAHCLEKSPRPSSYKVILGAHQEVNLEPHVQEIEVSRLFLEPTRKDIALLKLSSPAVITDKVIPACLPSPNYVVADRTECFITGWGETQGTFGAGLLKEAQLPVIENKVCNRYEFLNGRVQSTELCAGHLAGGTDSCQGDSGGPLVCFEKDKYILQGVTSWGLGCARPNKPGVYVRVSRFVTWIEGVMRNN
T4 sequence (P00747 97-580 partner limits assumed): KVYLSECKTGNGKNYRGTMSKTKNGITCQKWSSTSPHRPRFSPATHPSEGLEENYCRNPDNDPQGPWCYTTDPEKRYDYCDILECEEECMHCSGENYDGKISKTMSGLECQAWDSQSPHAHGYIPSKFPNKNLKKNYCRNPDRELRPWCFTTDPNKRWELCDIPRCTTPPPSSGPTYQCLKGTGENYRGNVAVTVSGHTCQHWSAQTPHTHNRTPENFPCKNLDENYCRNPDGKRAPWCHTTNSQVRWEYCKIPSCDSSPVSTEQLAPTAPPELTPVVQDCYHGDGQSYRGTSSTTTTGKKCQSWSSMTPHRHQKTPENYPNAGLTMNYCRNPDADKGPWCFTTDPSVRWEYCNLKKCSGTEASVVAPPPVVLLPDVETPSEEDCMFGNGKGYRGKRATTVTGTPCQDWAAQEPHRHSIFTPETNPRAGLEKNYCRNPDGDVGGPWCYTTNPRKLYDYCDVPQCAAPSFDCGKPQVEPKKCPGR
T5 sequence (P03952 391-638 limits assumed): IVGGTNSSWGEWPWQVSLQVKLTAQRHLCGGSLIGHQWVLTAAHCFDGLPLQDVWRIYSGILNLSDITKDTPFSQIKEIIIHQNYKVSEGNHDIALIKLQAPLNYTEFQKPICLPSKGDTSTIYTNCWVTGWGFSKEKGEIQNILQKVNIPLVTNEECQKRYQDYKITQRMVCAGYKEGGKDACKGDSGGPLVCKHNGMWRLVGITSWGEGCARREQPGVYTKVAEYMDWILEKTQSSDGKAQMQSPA
T5 sequence (P03952 20-390 partner limits assumed): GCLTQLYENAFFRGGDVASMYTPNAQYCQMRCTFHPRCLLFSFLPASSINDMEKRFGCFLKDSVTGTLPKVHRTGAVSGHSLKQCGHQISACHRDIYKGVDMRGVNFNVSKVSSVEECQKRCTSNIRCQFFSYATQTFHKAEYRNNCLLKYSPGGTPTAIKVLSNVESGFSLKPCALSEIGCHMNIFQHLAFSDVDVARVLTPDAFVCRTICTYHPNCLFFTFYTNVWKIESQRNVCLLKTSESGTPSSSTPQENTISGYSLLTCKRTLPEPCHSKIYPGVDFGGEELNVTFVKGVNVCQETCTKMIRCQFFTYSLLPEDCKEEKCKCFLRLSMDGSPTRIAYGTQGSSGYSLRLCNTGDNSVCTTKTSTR
T2 sequence (P00742 235-488 limits assumed): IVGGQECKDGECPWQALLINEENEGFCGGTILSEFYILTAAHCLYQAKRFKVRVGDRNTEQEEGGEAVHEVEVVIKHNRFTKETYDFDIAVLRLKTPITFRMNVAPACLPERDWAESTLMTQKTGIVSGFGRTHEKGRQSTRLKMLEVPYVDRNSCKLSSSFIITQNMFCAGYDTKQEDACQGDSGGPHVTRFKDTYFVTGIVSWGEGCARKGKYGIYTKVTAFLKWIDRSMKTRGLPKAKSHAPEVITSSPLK
T2 sequence (P00742 41-179 partner limits assumed): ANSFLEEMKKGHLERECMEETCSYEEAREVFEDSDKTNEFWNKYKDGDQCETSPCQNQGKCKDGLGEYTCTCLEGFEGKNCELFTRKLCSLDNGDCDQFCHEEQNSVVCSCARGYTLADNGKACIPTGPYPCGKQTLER
T3 sequence (P04070 212-450 limits assumed): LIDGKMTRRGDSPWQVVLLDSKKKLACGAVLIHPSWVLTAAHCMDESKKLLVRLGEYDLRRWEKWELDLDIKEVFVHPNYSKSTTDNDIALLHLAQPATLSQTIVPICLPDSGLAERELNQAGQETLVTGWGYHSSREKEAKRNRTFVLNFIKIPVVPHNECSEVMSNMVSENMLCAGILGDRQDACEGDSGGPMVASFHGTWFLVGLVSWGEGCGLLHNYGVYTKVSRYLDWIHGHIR
T3 sequence (P04070 43-197 partner limits assumed): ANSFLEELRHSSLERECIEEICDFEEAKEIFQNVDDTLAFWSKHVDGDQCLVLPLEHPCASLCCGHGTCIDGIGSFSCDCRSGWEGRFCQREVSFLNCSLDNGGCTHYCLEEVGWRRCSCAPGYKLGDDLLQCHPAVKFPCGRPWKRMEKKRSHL
T10 sequence (P06870 25-262): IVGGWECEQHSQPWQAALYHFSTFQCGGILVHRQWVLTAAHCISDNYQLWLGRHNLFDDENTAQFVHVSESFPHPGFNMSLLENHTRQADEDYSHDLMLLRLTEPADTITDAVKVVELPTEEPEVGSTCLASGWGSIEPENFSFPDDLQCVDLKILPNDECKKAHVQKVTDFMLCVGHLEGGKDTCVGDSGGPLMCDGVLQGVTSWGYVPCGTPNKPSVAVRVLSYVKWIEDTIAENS

Ki [1] | Ki [2] | Ki [3] | Ki [4] | Ki [5] | Ki [6] | Ki [7] | Ki [8] | Ki [9] | Ki [10] | Compound
0.0031 µM | 0.0038 µM | > 30 µM | 7.27 µM | 0.74 µM | > 15 µM | > 100 µM | > 75 µM | > 30 µM | > 50 µM | O=C(NCc1cc(Cl)ccc1-n1cnnn1)[C@@H]1CCCN1C(=O)[C@@H](CCC(=O)N1CCOCC1)NS(=O)(=O)Cc1ccccc1 [Compound 2.20]
0.0012 µM | 0.0025 µM | > 25 µM | > 10 µM | 0.93 µM | > 20 µM | > 100 µM | > 50 µM | > 50 µM | > 200 µM | NCc1ccc(Cl)cc1CNC(=O)[C@@H]1CCCN1C(=O)[C@@H](CC(=O)N1CC[C@@H](O)C1)NS(=O)(=O)Cc1ccccc1 [Compound 2.9]
0.085 µM | 0.00068 µM | > 25 µM | > 100 µM | 2.69 µM | > 100 µM | > 100 µM | > 50 µM | > 100 µM | > 100 µM | NCc1ccc(Cl)cc1CNC(=O)[C@@H]1C[C@H](O)CN1C(=O)[C@@H](CCC(=O)N1CCOCC1)NS(=O)(=O)Cc1ccccc1 [Compound 2.22]
0.00034 µM | 0.00038 µM | > 100 µM | > 12 µM | 0.565 µM | 18 µM | > 40 µM | > 100 µM | > 30 µM | – | NCc1ccc(Cl)cc1CNC(=O)[C@@H]1CCCN1C(=O)[C@@H](CC(=O)N1CCOCC1)NS(=O)(=O)Cc1ccccc1 [Compound 2.36]
0.018 µM | 0.0028 µM | > 20 µM | > 10 µM | 0.639 µM | 9.27 µM | > 100 µM | > 20 µM | > 100 µM | > 100 µM | NCc1ccc(Cl)cc1CNC(=O)[C@@H]1C[C@@H](N)CN1C(=O)[C@@H](CC(=O)N1CCNCC1)NS(=O)(=O)Cc1ccccc1 [Compound 2.5]
0.00057 µM | 0.00018 µM | > 50 µM | 11.9 µM | 0.322 µM | 15.3 µM | > 50 µM | > 30 µM | > 20 µM | > 50 µM | NCc1ccc(Cl)cc1CNC(=O)[C@@H]1C[C@@H](N)CN1C(=O)[C@@H](CC(=O)N1CCCCC1)NS(=O)(=O)Cc1ccccc1 [Compound 2.7]
0.0003 µM | 0.0015 µM | > 100 µM | > 5 µM | 0.417 µM | > 50 µM | > 100 µM | > 50 µM | > 10 µM | > 50 µM | CN(CC1CCNCC1)C(=O)C[C@@H](NS(=O)(=O)Cc1ccccc1)C(=O)N1CCC[C@H]1C(=O)NCc1cc(Cl)ccc1CN [Compound 2.16]
0.0051 µM | 0.0014 µM | > 30 µM | > 100 µM | 8.56 µM | > 40 µM | > 100 µM | > 60 µM | > 30 µM | > 20 µM | NCc1ccc(Cl)cc1CNC(=O)[C@@H]1CNCCN1C(=O)[C@@H](CC(=O)N1CCCCC1)NS(=O)(=O)Cc1ccccc1 [Compound 2.13]
0.0186 µM | 0.0154 µM | > 0.5 µM | – | – | – | – | – | – | – | NCc1ccc(Cl)cc1CNC(=O)[C@@H]1CCCN1C(=O)[C@@H](CC(=O)N1CCS(=O)(=O)CC1)NS(=O)(=O)Cc1ccccc1 [Compound 2.39]
0.0097 µM | 0.0017 µM | > 100 µM | > 40 µM | 5.81 µM | > 80 µM | > 20 µM | > 80 µM | > 30 µM | > 10 µM | NCc1ccc(Cl)cc1CNC(=O)[C@@H]1CCN1C(=O)[C@@H](CCC(=O)N1CCOCC1)NS(=O)(=O)Cc1ccccc1 [Compound 2.43]
0.0033 µM | 0.093 µM | > 25 µM | > 15 µM | > 20 µM | > 20 µM | > 100 µM | > 50 µM | > 10 µM | – | NCc1ccc(Cl)cc1CNC(=O)[C@@H]1CCCN1C(=O)[C@@H](CCC(=O)O)NS(=O)(=O)Cc1ccccc1 [Compound 2.29]
0.0025 µM | 0.017 µM | > 10 µM | – | 0.8 µM | 26.8 µM | > 100 µM | > 20 µM | > 100 µM | > 100 µM | NCc1ccc(Cl)cc1CNC(=O)[C@@H]1CCCN1C(=O)[C@@H](CC(=O)Nc1cc[n+]([O-])cc1)NS(=O)(=O)Cc1ccccc1 [Compound 2.48, Bzls-D-Asp(1-oxido-4-amino-pyridine)-L-Pro-Amb(2-AMe-5-Cl)]
0.00049 µM | 0.00054 µM | > 40 µM | 6 µM | 0.413 µM | 19 µM | > 20 µM | > 80 µM | > 200 µM | – | NCc1ccc(Cl)cc1CNC(=O)[C@@H]1CCCN1C(=O)[C@@H](CC(=O)N1CCSCC1)NS(=O)(=O)Cc1ccccc1 [Compound 2.37]
0.00057 µM | 0.036 µM | > 50 µM | 5.56 µM | – | > 100 µM | > 20 µM | > 20 µM | > 100 µM | > 100 µM | CC(=O)N1CCC(N(C)C(=O)CC[C@@H](NS(=O)(=O)Cc2ccccc2)C(=O)N2CCC[C@H]2C(=O)NCc2cc(Cl)ccc2CN)CC1 [Compound 2.28]
0.0078 µM | 0.0055 µM | > 50 µM | – | 0.614 µM | > 20 µM | > 60 µM | > 80 µM | > 200 µM | – | NCc1ccc(Cl)cc1CNC(=O)[C@@H]1CCCN1C(=O)[C@@H](CC(=O)N1CC[S+]([O-])CC1)NS(=O)(=O)Cc1ccccc1 [Compound 2.38]
0.0063 µM | 0.0024 µM | > 100 µM | 9 µM | 0.478 µM | > 20 µM | > 50 µM | > 80 µM | > 50 µM | – | CC(=O)N1CCN(C(=O)C[C@@H](NS(=O)(=O)Cc2ccccc2)C(=O)N2CCC[C@H]2C(=O)NCc2cc(Cl)ccc2CN)CC1 [Compound 2.40]

From patent US8497245B2, “Trypsin-like serine protease inhibitors, their preparation and use as selective inhibitors of the clotting factors IIa and Xa” (The Medicines Company (Leipzig) GmbH, priority 2010, dated 2013)
